According to patent US11168102B1, “Bicyclic heteroaryl compounds and uses thereof” (Revolution Medicines, Inc., priority 2019, dated 2021):

system: cellular pERK in PC-9 cells (EGFR Ex19Del); assay: Potency assay: pERK (AlphaLISA SureFire Ultra p-ERK1/2) in PC-9 cells; assay type: cell-based; conditions: Homo sapiens, PC-9, 1 h, PC-9 cells (EGFR Ex19Del), 1 hour incubation, AlphaLISA SureFire Ultra p-ERK1/2; read-out: SOS1 pERK IC50

For `C[C@@H](Nc1ncnc2c1cc(C1=CCS(=O)(=O)CC1)c(=O)n2C)c1cccc(C(F)F)c1CC#N` [Example 63, 2-[2-(difluoromethyl)-6-[(1R)-1-[[6-(1,1-dioxo-3,6-dihydro-2H-thiopyran-4-yl)-8-methyl-7-oxo-pyrido[2,3-d]pyrimidin-4-yl]amino]ethyl]phenyl]acetonitrile], which IC50 is on record?
Its IC50 is > 10000 nM.

How did the IC50 turn out when `C[C@@H](Nc1ncnc2c1cc(C1(N)CS(=O)(=O)C1)c(=O)n2C)c1cccc(C(F)F)c1F` [Example 31-6] was run?
The IC50 was 191 nM.

For `CC(=O)N1CC=C(c2cc3c(N[C@H](C)c4cccc(C(F)F)c4F)ncnc3n(C)c2=O)CC1` [Example 1-16], which IC50 is on record?
Its IC50 is 119 nM.

How did the IC50 turn out when `COC1(c2cc3c(N[C@H](C)c4cccc(C(F)F)c4F)ncnc3n(C)c2=O)C[C@@H]2C[C@H]1CN2C(C)=O` (stereo partly drawn) [Example 32-18] was run?
The IC50 was 947 nM.

Which IC50 does the source give for `CC(=O)N1CCC(OC2CC2)(c2cc3c(N[C@H](C)c4cccc(C(F)F)c4F)ncnc3n(C)c2=O)CC1` [Example 32-44] here?
The IC50 was 32.1 nM.

`C[C@@H](Nc1ncnc2c1cc(C1=CC[P@](C)(=O)CC1)c(=O)n2C)c1cccc(C(F)F)c1F` [Example 1-32] was tested. Which IC50 did it give?
Its IC50 is 93.1 nM.

`C[C@@H](Nc1ncnc2c1cc(C1(O)CS(=O)(=O)C1)c(=O)n2C)c1cccc(C(F)F)c1F` [Example 28-7] was tested. Which IC50 did it give?
The IC50 was 322 nM.

With `C[C@@H](Nc1ncnc2c1cc(C1CCS(=N)(=O)CC1)c(=O)n2C)c1cccc(C(F)F)c1F` (stereo partly drawn) [Example 67, 4-[[(1R)-1-[3-(difluoromethyl)-2-fluoro-phenyl]ethyl]amino]-6-(1-imino-1-oxo-thian-4-yl)-8-methyl-pyrido[2,3-d]pyrimidin-7-one] as the compound, how does the IC50 read?
The IC50 was 16.1 nM.

`C[C@@H](Nc1ncnc2c1cc(C(=O)N1CCCC13COC3)c(=O)n2C)c1cccc(C(F)F)c1F` [Example 26-14] was tested. Which IC50 did it give?
Its IC50 is 122 nM.

With `C[C@@H](Nc1ncnc2c1cc(C1CCS(=O)(=NC3COC3)CC1)c(=O)n2C)c1cccc(C(F)F)c1F` (stereo partly drawn) [Example 60, 4-[[(1R)-1-[3-(difluoromethyl)-2-fluoro-phenyl]ethyl]amino]-8-methyl-6-[1-(oxetan-3-ylimino)-1-oxo-thian-4-yl]pyrido[2,3-d]pyrimidin-7-one] as the compound, how does the IC50 read?
The IC50 was 23.1 nM.

Which IC50 does the source give for `C[C@@H](Nc1ncnc2c1cc(C1(F)CCN(C3COC3)CC1)c(=O)n2C)c1cccc(C(F)F)c1F` [Example 29-13] here?
The IC50 was 196 nM.

With `COCCN1CCN(C(=O)c2cc3c(N[C@H](C)c4cccc(C(F)F)c4F)ncnc3n(C)c2=O)CC1` [Example 26-48] as the compound, how does the IC50 read?
The IC50 was 220 nM.

For `C[C@@H](Nc1ncnc2c1cc(C(=O)N1CCOCC13CCOC3)c(=O)n2C)c1cccc(C(F)F)c1F` (stereo partly drawn) [Example 26-47], which IC50 is on record?
The IC50 was 585 nM.

`C[C@@H](Nc1ncnc2c1cc(C(=O)N1CC[C@@H]3CCO[C@@H]31)c(=O)n2C)c1cccc(C(F)F)c1F` [Example 26-17] was tested. Which IC50 did it give?
The IC50 was 195 nM.

`CO[C@@]1(c2cc3c(N[C@H](C)c4cccc(C(F)F)c4F)ncnc3n(C)c2=O)CCN(C(C)=O)C(C)(C)C1` [Example 32-53] was tested. Which IC50 did it give?
The IC50 was 199 nM.

Which IC50 does the source give for `Cc1nc(N[C@H](C)c2cccc(C(F)F)c2F)c2cc(C3CCNCC3)c(=O)n(C)c2n1` [Example 1-31] here?
The IC50 was 568 nM.

With `C[C@@H](Nc1ncnc2c1cc(C1=CCCOC1)c(=O)n2C)c1cccc(C(F)F)c1F` [Example 1-6] as the compound, how does the IC50 read?
Its IC50 is 180 nM.

Which IC50 does the source give for `Cc1nc(N[C@H](C)c2cccc(C(F)F)c2F)c2cc(CN3CCOCC3)c(=O)n(C)c2n1` [Example 27, 4-{[(1R)-1-[3-(difluoromethyl)-2-fluorophenyl]ethyl]amino}-2,8-dimethyl-6-[(morpholin-4-yl)meth-yl]-7H,8H-pyrido[2,3-d]pyrimidin-7-one] here?
Its IC50 is 852 nM.

For `CO[C@]1(c2cc3c(N[C@H](C)c4cccc(C(F)F)c4F)ncnc3n(C)c2=O)CCN(C(C)=O)[C@H](C)C1` [Example 32-51], which IC50 is on record?
The IC50 was 5.79 nM.

How did the IC50 turn out when `Cc1nc(N[C@H](C)c2cc(N)cc(C(F)(F)F)c2)c2cc(C3CCNCC3)c(=O)[nH]c2n1` [Example 8, (R)-4-((1-(3-amino-5-(trifluoromethyl)phenyl)ethyl)amino)-2-methyl-6-(piperidin-4-yl)pyrido[2,3-d]pyrimidin-7(8H)-one] was run?
The IC50 was 2130 nM.

How did the IC50 turn out when `C[C@@H](Nc1ncnc2c1cc(-c1cccnc1)c(=O)n2C)c1cccc(C(F)F)c1F` [Example 21-15] was run?
The IC50 was 212 nM.

How did the IC50 turn out when `C[C@@H](Nc1ncnc2c1cc(C1(N)CC3(C1)CS(=O)(=O)C3)c(=O)n2C)c1cccc(C(F)F)c1F` [Example 31-4] was run?
The IC50 was 180 nM.

Which IC50 does the source give for `COc1ccc(COC2(c3cc4c(N[C@H](C)c5cccc(C(F)F)c5F)ncnc4n(C)c3=O)CC2)cc1` [Example 61, 4-[[(1R)-1-[3-(difluoromethyl)-2-fluoro-phenyl]ethyl]amino]-6-[1-[(4-methoxyphenyl)methoxy]cyclopropyl]-8-methyl-pyrido[2,3-d]pyrimidin-7-one] here?
The IC50 was 647 nM.

How did the IC50 turn out when `C[C@@H](Nc1ncnc2c1cc(N1CCOCC1)c(=O)n2C)c1cccc(C(F)(F)CO)c1` [Example 2, (R)-4-((1-(3-(1,1-difluoro-2-hydroxyethyl)phenyl)ethyl)amino)-8-methyl-6-morpholinopyrido[2,3-d]pyrimidin-7(8H)-one] was run?
Its IC50 is 59.8 nM.

How did the IC50 turn out when `CC1CN(C(=O)c2cc3c(N[C@H](C)c4cccc(C(F)F)c4F)ncnc3n(C)c2=O)C(C)CO1` (stereo partly drawn) [Example 26-23] was run?
Its IC50 is 275 nM.

For `COC(=O)N1CCC(OC)(c2cc3c(N[C@H](C)c4cccc(C(F)F)c4F)ncnc3n(C)c2=O)CC1` [Example 32-61], which IC50 is on record?
The IC50 was 115 nM.

With `C[C@@H](Nc1ncnc2c1cc(C1(F)CCS(=O)(=NC3CC3)CC1)c(=O)n2C)c1cccc2c1OCC2(F)F` (stereo partly drawn) [Example 56-4] as the compound, how does the IC50 read?
Its IC50 is 50 nM.

For `COC1(c2cc3c(N[C@H](C)c4cccc(C(F)F)c4F)ncnc3n(C)c2=O)C[C@H](C)N(C(C)=O)C1` (stereo partly drawn) [Example 32-38], which IC50 is on record?
Its IC50 is 172 nM.

With `COC1(c2cc3c(N[C@H](C)c4cccc(C(F)F)c4F)ncnc3n(C)c2=O)CCN(C(C)=O)C(C)(C)C1` (stereo partly drawn) [Example 32-29] as the compound, how does the IC50 read?
Its IC50 is 53.7 nM.

For `Cc1nc(N[C@H](C)c2cc(N)cc(C(F)(F)F)c2)c2cc(C3=CCNCC3)c(=O)n(C)c2n1` [Example 6, 4-[[(1R)-1-[3-amino-5-(trifluoromethyl)phenyl]ethyl]amino]-2,8-dimethyl-6-(1,2,3,6-tetrahydropyridin-4-yl)pyrido[2,3-d]pyrimidin-7-one], which IC50 is on record?
Its IC50 is 188 nM.

Which IC50 does the source give for `C[C@@H](Nc1ncnc2c1cc(C1(OC3CC3)CCS(=O)(=O)CC1)c(=O)n2C)c1cccc(C(F)F)c1F` [Example 32-27] here?
The IC50 was 87.9 nM.

Which IC50 does the source give for `CC(=O)N1CC(F)(c2cc3c(N[C@H](C)c4cccc(C(F)F)c4F)ncnc3n(C)c2=O)C1` [Example 29-2] here?
The IC50 was 91.5 nM.

For `C[C@@H](Nc1ncnc2c1cc(C(=O)N1CCc3cnccc31)c(=O)n2C)c1cccc(C(F)F)c1F` [Example 26-27], which IC50 is on record?
The IC50 was 803 nM.

same assay, conditions: Homo sapiens, PC-9, 1 h, read-out: SOS1 pERK IC50

Which IC50 does the source give for `COC1(c2cc3c(N[C@H](C)c4cccc(C(F)F)c4F)ncnc3n(C)c2=O)CCN(C)CC1` [Example 32-3] here?
Its IC50 is 2240 nM.

How did the IC50 turn out when `Cc1nc(N[C@H](C)c2cccc(C(F)F)c2F)c2cc(C3(O)CCN(C)CC3)c(=O)n(C)c2n1` [Example 28-2] was run?
Its IC50 is 572 nM.

same assay, conditions: PC-9 cells (EGFR Ex19Del), 1 hour incubation, AlphaLISA SureFire Ultra p-ERK1/2; read-out: SOS1 pERK IC50

How did the IC50 turn out when `C[C@@H](Nc1ncnc2c1cc(C1(F)CCC3(CC1)CS(=O)(=NC1CC1)C3)c(=O)n2C)c1cccc(C(F)F)c1F` (single isomer, unassigned) [Example 56-3] was run?
Its IC50 is 86.2 nM.

Which IC50 does the source give for `COC1(c2cc3c(N[C@H](C)c4cccc(C(F)F)c4F)ncnc3n(C)c2=O)CCS(=N)(=O)CC1` (single isomer, unassigned) [Example 50] here?
The IC50 was 112 nM.

How did the IC50 turn out when `C[C@@H](Nc1ncnc2c1cc(C1=CCS(=O)(=NC3COC3)CC1)c(=O)n2C)c1cccc(C(F)F)c1F` (stereo partly drawn) [Example 66, 4-(((R)-1-(3-(difluoromethyl)-2-fluorophenyl)ethyl)amino)-8-methyl-6-((R)-1-(oxetan-3-ylimino)-1-oxido-1,2,3,6-tetrahydro-1λ^6-thiopyran-4-yl)pyrido[2,3-d]pyrimidin-7(8H)-one] was run?
The IC50 was 29.1 nM.

For `C[C@@H](Nc1ncnc2c1cc(C1(F)CCP(C)(=O)CC1)c(=O)n2C)c1cccc(C(F)F)c1F` (stereo partly drawn) [Example 29-10], which IC50 is on record?
The IC50 was 140 nM.

How did the IC50 turn out when `CN=S1(=O)CCC(F)(c2cc3c(N[C@H](C)c4cccc(C(F)F)c4F)ncnc3n(C)c2=O)CC1` (stereo partly drawn) [Example 52, 4-(((R)-1-(3-(difluoromethyl)-2-fluorophenyl)ethyl)amino)-6-((1R,4r)-4-fluoro-1-(methylimino)-1-oxidohexahydro-1λ-thiopyran-4-yl)-8-methylpyrido[2,3-d]pyrimidin-7(8H)-one] was run?
Its IC50 is 70.6 nM.

For `C[C@@H](Nc1ncnc2c1cc(C1(C#N)CCC3(CC1)CS(=O)(=NC1CC1)C3)c(=O)n2C)c1cccc(C(F)F)c1F` (single isomer, unassigned) [Example 58-2], which IC50 is on record?
Its IC50 is 56.2 nM.

For `C[C@@H](Nc1ncnc2c1cc(C1(F)CCC3(CC1)CS(=O)(=NC1CC1)C3)c(=O)n2C)c1cccc(C(F)F)c1F` (single isomer, unassigned) [Example 56-2], which IC50 is on record?
Its IC50 is 294 nM.

How did the IC50 turn out when `COC1(c2cc3c(N[C@H](C)c4cccc(C(F)F)c4F)ncnc3n(C)c2=O)CCN(C(C)=O)C2(CC2)C1` (stereo partly drawn) [Example 32-43] was run?
The IC50 was 181 nM.

For `C[C@@H](Nc1ncnc2c1cc(C1CCP(C)(=O)CC1)c(=O)n2C)c1cccc(C(F)F)c1F` (stereo partly drawn) [Example 33-22], which IC50 is on record?
The IC50 was 1200 nM.

For `CN=S1(=O)CCC(c2cc3c(N[C@H](C)c4cccc(C(F)F)c4F)ncnc3n(C)c2=O)CC1` (single isomer, unassigned) [Example 64], which IC50 is on record?
The IC50 was 131 nM.

`C[C@@H](Nc1ncnc2c1cc(C1=CCS(=O)(=NC#N)CC1)c(=O)n2C)c1cccc(C(F)F)c1F` (single isomer, unassigned) [Example 46] was tested. Which IC50 did it give?
The IC50 was 43.3 nM.

How did the IC50 turn out when `COC1(c2cc3c(N[C@H](C)c4cccc(C(F)F)c4F)ncnc3n(C)c2=O)CCS(=O)(=NC2CC2)CC1` (single isomer, unassigned) [Example 68] was run?
Its IC50 is 201 nM.

With `C[C@@H](Nc1ncnc2c1cc(C1CCS(=O)(=NC3CC3)CC1)c(=O)n2C)c1cccc(C(F)F)c1F` (single isomer, unassigned) [Example 64-2] as the compound, how does the IC50 read?
Its IC50 is 494 nM.
